Assay results taken from patent US20230159467A1, “NOVEL COMPOUNDS USEFUL IN THE TREATMENT AND/OR PREVENTION OF A DISEASE, DISORDER OR CONDITION ASSOCIATED WITH ANGIOTENSIN II” (Vicore Pharma AB, priority 2020, published 2023).

Legend:
CYP2D6 [1] = molecular target: T1, CYP2D6 (Homo sapiens, UniProt P10635); assay: CYP450 inhibition assay, pooled human liver microsomes, dextromethorphan substrate; settings: both, human, pooled human liver microsomes, pH 7.4, probe dextromethorphan
[2] = Kinetic solubility in PBS pH 7.4; format: physicochemical; settings: Dulbecco's PBS buffer, aqueous buffer, kinetic from dmso stock; PBS pH 7.4, 24 h room temperature, 2% DMSO
Procedure: Kinetic solubility. Dulbecco's PBS buffer was used (NaCl 137 mM, KCl 2.7 mM, Na2HPO4 8.1 mM, KH2PO4 1.5 mM with pH 7.4). The test compound is prepared at 200 μM in the PBS buffer from a 10 mM DMSO stock solution. The final DMSO concentration is 2%. The buffer samples were mixed thoroughly followed by incubation at room temperature for 24 h. At the end of the incubation, the buffer samples were centrifuged and supernatants were then injected for the HPLC analysis. A calibration standard of the test compound was prepared at 200 μM in methanol/water (3/2, v/v) from a 10 mM DMSO stock solution on the day of HPLC analysis. The analysis was conducted by HPLC-UV/VIS with photodiode array detection, with monitoring at 205, 230, 260, and 300 nm wavelengths. The HPLC system consisted of a C18 column using a gradient of A and B (A=12 mM ammonium formate, 6 mM formic acid in water, pH 4.0, B=6 mM ammonium formate, 3 mM formic acid acetonitrile/water (9/1, v/v)). Reference compounds used were metoprolol, rifampicin, ketoconazole, phenytoin, haloperidol, simvastatin, diethylstilbestrol, and tamoxifen, ranking from fully soluble (200 μM) to poorly soluble (<1μM). […] The range of the assay was approximately 0.5 μM to 200 μM. The chromatographic purity (%) was determined as the peak area of the principal peak relative to the total integrated peak areas in the HPLC chromatogram of the calibration standard.

[3] = Stability in human liver microsomes; format: in vitro ADME; settings: half-life
Procedure: (§1) Stability in liver microsomes. Human, mouse and rat liver microsomes were used to assess the metabolic stability for the compounds. Metabolic stability was determined in 0.5 mg/mL human, mouse or rat liver microsomes at a compound concentration of 1 μM in 100 mM potassium phosphate buffer (pH 7.4) in a total incubation volume of 500 μL by Eurofins. The assay matrix was: human liver microsomes: mixed gender and pool of 50, rat liver microsomes: male, Sprague-Dawley, pool of 100 or more and mouse liver microsomes: male,CD-1, pool of 250 or more. Final microsomal protein concentration: 0.1mg/mL. The test concentration was 0.1 μM with 0.01% DMSO, 0.25% acetonitrile and 0.25% methanol by default. […] The reaction was initiated by adding NADPH-generating system and was incubated for 0, 15, 30, 45, and 60 min. The reaction was stopped by transferring the incubation mixture to acetonitrile/methanol. Samples were then mixed and centrifuged. Four reference compounds were tested in each assay. Propranolol and imipramine are relatively stable, whereas verapamil and terfenadine are readily metabolized inhuman liver microsomes. Samples were analyzed by HPLC-MS/MS using selected reaction monitoring. The HPLC system consisted of a binary LC pump with autosampler, a C-18 column, and a gradient. Peak areas corresponding to the test compound were recorded. The compound remaining was calculated by comparing the peak area at each time point to time zero. The half-life was calculated from the slope of the initial linear range of the logarithmic curve of compound remaining (%) vs. time, assuming first order kinetics. In addition, the intrinsic clearance (Clint) was calculated.^19,20

CYP2C19 [4] = molecular target: T2, CYP2C19 (Homo sapiens, UniProt P33261); assay: CYP450 inhibition assay, pooled human liver microsomes, omeprazole substrate; settings: both, human, pooled human liver microsomes, pH 7.4, probe omeprazole
T2 sequence (P33261 whole entry): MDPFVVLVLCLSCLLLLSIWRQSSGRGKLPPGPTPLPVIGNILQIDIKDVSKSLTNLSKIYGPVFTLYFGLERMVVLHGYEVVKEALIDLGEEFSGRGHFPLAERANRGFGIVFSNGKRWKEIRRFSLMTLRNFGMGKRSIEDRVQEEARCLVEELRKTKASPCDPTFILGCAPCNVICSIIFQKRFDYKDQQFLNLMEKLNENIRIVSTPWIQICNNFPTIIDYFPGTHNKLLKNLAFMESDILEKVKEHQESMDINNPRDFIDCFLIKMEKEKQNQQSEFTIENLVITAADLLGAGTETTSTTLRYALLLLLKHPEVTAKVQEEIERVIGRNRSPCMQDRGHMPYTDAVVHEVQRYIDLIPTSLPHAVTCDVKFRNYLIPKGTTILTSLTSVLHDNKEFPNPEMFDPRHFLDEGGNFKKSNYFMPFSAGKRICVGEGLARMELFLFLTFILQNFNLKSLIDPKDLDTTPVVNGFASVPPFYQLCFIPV

CYP3A [5] = assay: CYP450 inhibition assay, pooled human liver microsomes, testosterone substrate; settings: both, human, pooled human liver microsomes, pH 7.4, probe testosterone, CYP 450 Inhibition CYP3A testosterone, at 10 μM
Procedure: The compound was tested at a single concentration (10 μM) with 0.1% DMSO. […] The reaction was initiated by adding a NADPH-generating system. The reaction was allowed for 10 min and stopped by transferring the reaction mixture to acetonitrile/methanol. Samples were mixed and centrifuged. Supernatants were used for HPLC-MS/MS of the respective metabolite. The activity of human cytochrome P450 (CYP) enzymes were determined by following the formation of a metabolite of the probe substrate. The following enzymes were evaluated for inhibition using the listed reference substrates and reference inhibitors:
CYP1A—phenacetin (reference inhibitor furafylline), CYP2B6—bupropion (reference inhibitor clopidogre), CYP2C8-amodiaquine (reference inhibitor montelukast), CYP2C9—diclofenac (reference inhibitor sulfaphenazole), CYP2C19—omeprazole (reference inhibitor oxybutynin), CYP2D6—dextromethorphan (reference inhibitor quinidine), CYP3A—midazolam (reference inhibitor ketoconazol) and CYP3A—testosterone (reference inhibitor ketoconazol). The reference inhibitors were tested in each assay at multiple concentrations to obtain an IC50 value. Peak areas corresponding to the metabolite were recorded. The percent of control activity was calculated by comparing the peak area in the presence of the test compound to the control samples containing the same solvent. Subsequently, the percent inhibition was calculated by subtracting the percent control activity from 100. The IC50 value (concentration causing a half-maximal inhibition of the control value) was determined by non-linear regression analysis of the concentration-response curve using the Hill equation.

CYP2B6 = molecular target: T3, CYP2B6 (Homo sapiens, UniProt P20813); assay: CYP450 inhibition assay, pooled human liver microsomes, bupropion substrate; settings: both, human, pooled human liver microsomes, pH 7.4, probe bupropion
T3 sequence (P20813 1-491): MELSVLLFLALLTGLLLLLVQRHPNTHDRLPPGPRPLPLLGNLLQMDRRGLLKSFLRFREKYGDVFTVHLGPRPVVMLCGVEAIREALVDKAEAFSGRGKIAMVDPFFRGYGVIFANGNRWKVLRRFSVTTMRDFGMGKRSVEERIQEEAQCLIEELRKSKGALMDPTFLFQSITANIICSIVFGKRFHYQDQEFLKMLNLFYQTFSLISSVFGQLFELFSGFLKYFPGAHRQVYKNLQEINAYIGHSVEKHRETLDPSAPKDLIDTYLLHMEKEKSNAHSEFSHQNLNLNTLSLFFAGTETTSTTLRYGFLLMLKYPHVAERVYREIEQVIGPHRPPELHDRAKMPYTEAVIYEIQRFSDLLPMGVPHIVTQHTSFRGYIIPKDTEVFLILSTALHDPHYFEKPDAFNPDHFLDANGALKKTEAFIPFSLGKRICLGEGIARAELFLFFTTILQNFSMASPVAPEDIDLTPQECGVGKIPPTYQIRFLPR

[6] = Stability in mouse liver microsomes; format: in vitro ADME; settings: half-life
Procedure: as §1

CYP2C8 = molecular target: T4, CYP2C8 (Homo sapiens, UniProt P10632); assay: CYP450 inhibition assay, pooled human liver microsomes, amodiaquine substrate; settings: both, human, pooled human liver microsomes, pH 7.4, probe amodiaquine
T4 sequence (P10632 1-490): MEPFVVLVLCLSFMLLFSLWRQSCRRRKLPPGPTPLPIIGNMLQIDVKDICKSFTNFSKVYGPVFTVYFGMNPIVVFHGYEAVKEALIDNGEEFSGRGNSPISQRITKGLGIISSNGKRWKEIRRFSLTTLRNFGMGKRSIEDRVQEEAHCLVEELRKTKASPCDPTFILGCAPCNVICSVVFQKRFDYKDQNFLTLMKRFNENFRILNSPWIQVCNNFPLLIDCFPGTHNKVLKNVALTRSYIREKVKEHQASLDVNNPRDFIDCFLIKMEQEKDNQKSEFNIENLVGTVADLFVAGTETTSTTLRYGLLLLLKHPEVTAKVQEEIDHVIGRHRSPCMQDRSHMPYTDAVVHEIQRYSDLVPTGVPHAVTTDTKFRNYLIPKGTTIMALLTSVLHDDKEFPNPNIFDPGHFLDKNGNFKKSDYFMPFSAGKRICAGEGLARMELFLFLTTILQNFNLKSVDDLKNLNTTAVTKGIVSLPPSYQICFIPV

CYP2C9 = CYP2C9 (Homo sapiens, UniProt P11712); assay: CYP450 inhibition assay, pooled human liver microsomes, diclofenac substrate; settings: both, human, pooled human liver microsomes, pH 7.4, probe diclofenac
Sequence of CYP2C9 (P11712 whole entry): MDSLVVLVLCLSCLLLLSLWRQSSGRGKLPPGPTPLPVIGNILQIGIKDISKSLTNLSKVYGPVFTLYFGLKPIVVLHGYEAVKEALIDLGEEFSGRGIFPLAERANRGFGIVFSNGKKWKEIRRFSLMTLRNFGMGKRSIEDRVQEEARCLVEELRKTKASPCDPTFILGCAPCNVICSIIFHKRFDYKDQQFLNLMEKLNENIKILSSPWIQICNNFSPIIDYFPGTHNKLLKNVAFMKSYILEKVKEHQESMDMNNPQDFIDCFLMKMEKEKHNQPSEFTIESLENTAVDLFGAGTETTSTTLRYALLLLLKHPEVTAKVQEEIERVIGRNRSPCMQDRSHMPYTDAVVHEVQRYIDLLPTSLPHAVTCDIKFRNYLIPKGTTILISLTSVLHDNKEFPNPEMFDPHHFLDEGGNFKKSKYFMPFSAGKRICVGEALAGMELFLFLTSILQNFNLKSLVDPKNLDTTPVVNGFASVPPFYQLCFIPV

CYP3A [7] = assay: CYP450 inhibition assay, pooled human liver microsomes, midazolam substrate; settings: both, human, pooled human liver microsomes, pH 7.4, probe midazolam
CYP1A = molecular target: T5, CYP1A (Homo sapiens, UniProt P05177); assay: CYP450 inhibition assay, pooled human liver microsomes, phenacetin substrate; settings: both, human, pooled human liver microsomes, pH 7.4, probe phenacetin
T5 sequence (P05177 1-516): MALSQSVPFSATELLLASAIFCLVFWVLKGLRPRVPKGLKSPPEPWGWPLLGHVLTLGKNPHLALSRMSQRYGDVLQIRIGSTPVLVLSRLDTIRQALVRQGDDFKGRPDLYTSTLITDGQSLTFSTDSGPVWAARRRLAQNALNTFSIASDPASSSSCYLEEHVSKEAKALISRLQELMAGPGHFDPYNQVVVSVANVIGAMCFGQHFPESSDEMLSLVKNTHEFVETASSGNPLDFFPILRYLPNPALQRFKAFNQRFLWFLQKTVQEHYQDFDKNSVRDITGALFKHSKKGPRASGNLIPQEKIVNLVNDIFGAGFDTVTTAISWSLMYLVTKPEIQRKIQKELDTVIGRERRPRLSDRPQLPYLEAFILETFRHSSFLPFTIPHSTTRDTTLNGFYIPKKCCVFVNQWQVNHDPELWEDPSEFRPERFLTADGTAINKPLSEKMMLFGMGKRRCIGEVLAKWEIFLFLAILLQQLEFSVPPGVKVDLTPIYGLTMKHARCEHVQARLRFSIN

[8] = Stability in rat liver microsomes; format: in vitro ADME; settings: half-life
Procedure: as §1

CYP3A [9] = settings: at 10 μM; midazolam substrate; from Bioorg. Med. Chem. 2010, 18 (12), 4570-4590; cited from earlier work
CYP2D6 [10] = molecular target: T1, CYP2D6; settings: at 10 μM; from Bioorg. Med. Chem. 2010, 18 (12), 4570-4590; cited from earlier work
CYP2C19 [11] = molecular target: T2, CYP2C19; settings: at 10 μM; from Bioorg. Med. Chem. 2010, 18 (12), 4570-4590; cited from earlier work

T1 sequence (P10635 whole entry): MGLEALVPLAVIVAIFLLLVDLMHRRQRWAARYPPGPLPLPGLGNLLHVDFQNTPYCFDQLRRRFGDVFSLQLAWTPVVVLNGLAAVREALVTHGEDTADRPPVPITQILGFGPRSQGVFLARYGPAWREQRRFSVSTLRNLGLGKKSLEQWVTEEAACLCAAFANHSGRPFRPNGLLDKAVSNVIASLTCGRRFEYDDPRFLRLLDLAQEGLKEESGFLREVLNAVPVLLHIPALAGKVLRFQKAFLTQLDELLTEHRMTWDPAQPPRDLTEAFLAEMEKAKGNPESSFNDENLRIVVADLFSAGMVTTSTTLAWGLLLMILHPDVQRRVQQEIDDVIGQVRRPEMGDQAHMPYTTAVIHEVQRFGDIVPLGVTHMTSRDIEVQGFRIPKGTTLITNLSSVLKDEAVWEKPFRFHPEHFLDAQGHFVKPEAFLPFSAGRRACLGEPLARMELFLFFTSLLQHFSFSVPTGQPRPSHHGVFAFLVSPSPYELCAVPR

| Compound | inhibition at 10 min, 10 µM (CYP2D6 [1]) [%] | solubility kinetic at 24 h [2] [µM] | Stability in liver microsomes HLM [3] [min] | inhibition at 10 min, 10 µM (CYP2C19 [4]) [%] | inhibition at 10 min, 10 µM (CYP3A [5]) [%] | inhibition at 10 min, 10 µM (CYP2B6) [%] | Stability in liver microsomes MLM [6] [min] | inhibition at 10 min, 10 µM (CYP2C8) [%] | inhibition at 10 min, 10 µM (CYP2C9) [%] | inhibition at 10 min, 10 µM (CYP3A [7]) [%] | inhibition at 10 min, 10 µM (CYP1A) [%] | Stability in liver microsomes RLM [8] [min] | CYP 450 Inhibition CYP3A midazolam (CYP3A [9]) [%] | CYP 450 Inhibition CYP2D6 (CYP2D6 [10]) [%] | CYP 450 Inhibition CYP2C19 (CYP2C19 [11]) [%] |
| --- | --- | --- | --- | --- | --- | --- | --- | --- | --- | --- | --- | --- | --- | --- | --- |
| CCCCOC(=O)[N-]S(=O)(=O)c1ccc(CC(C)C)cc1-c1ccc(Cn2ccnc2C(C)(C)O)cc1.[K+] [Example 7B, Potassium (butoxycarbonyl)((4′-((2-(2-hydroxypropan-2-yl)-1H-imidazol-1-yl)methyl)-5-isobutyl-[1,1′-biphenyl]-2-yl)sulfonyl)amide] | 16 | > 200 | 28 | 52 | 3.1 | 40 | 20 | 68 | 74 | -10.7 | -50 | 22 |  |  |  |
| COC(=O)[N-]S(=O)(=O)c1sc(CC(C)C)cc1-c1ccc(Cn2ccnc2C(C)(C)C)cc1.[K+] [Example 12B, Potassium ((3-(4-((2-(tert-butyl)-1H-imidazol-1-yl)methyl)phenyl)-5-isobutylthiophen-2-yl)sulfonyl)(methoxycarbonyl)amide] | 1.6 | > 200 | >60 | 36 | 6.8 | 25 | 39 | 73 | 29 | -11.6 | 8.3 | >60 |  |  |  |
| CCCCOC(=O)NS(=O)(=O)c1sc(CC(C)C)cc1-c1ccc(Cn2ccnc2)cc1 [Example C21, butyl ((3-(4-((1H-imidazol-1-yl)methyl)phenyl)-5-isobutylthiophen-2-yl)sulfonyl)carbamate] |  |  |  |  |  |  |  |  |  |  |  |  | 82 | 41 | 67 |
